Our source for the IC50 values is patent US9656988B2 (Pharmacyclics LLC, priority 2013, dated 2017).

A value given as a limit tells only on which side of the number the result lay.

BTK, sequence (Q06187 whole entry): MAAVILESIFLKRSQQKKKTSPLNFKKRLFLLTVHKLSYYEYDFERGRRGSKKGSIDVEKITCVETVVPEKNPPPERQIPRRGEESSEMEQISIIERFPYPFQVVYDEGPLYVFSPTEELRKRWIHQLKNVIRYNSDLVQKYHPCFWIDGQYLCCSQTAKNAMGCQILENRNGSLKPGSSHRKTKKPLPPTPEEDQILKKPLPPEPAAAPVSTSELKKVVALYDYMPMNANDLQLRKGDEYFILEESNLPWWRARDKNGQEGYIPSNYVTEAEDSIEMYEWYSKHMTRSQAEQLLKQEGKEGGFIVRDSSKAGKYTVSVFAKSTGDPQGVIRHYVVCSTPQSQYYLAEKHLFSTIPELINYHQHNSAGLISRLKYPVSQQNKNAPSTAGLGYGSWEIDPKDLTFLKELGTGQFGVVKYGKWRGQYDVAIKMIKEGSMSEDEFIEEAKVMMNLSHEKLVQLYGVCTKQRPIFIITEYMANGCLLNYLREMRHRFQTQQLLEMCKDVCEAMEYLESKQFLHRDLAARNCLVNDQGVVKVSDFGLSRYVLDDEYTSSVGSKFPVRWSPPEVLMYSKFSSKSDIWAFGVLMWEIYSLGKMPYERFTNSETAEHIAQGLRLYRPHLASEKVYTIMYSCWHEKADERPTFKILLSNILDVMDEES

The first assay concerns the target BTK (Homo sapiens (Human), UniProt Q06187). Description: Btk in vitro inhibitory activity (one of Method A TR-FRET, Method B electrophoretic mobility shift, Method C radiometric filter binding). In kind it is biochemical. The note with it: Btk (IC50).
Regarding `CN(C)C(=O)N1CC[C@@H]2CCN(c3cnc(C(N)=O)c(Nc4ccc(C5CCN(C6CCCC6)CC5)cc4)n3)C[C@@H]21` (racemic) [Example 292, (3aS,7aR)-6-(5-carbamoyl-6-(4-(1-cyclopentylpiperidin-4-yl)phenylamino)pyrazin-2-yl)-N,N-dimethyloctahydro-1H-pyrrolo[2,3-c]pyridine-1-carboxamide], the IC50 fell in the range of 10 to 100 nM.

Still in this assay, the particulars now being: determined using one of the methods of Example 355a, 355b and 355c; read-out: BTK IC50.
Take `CN(C)C(=O)N1CC[C@@H]2[C@H]1CCCN2c1cnc(C(N)=O)c(Nc2ccc(C3CCN(C4CCCC4)CC3)cc2)n1` (racemic) [Example 287, (3aR,7aR)-4-(5-carbamoyl-6-(4-(1-cyclopentylpiperidin-4-yl)phenylamino)pyrazin-2-yl)-N,N-dimethyloctahydro-1H-pyrrolo[3,2-b]pyridine-1-carboxamide]: the half-inhibitory concentration (IC50) fell in the range of 10 to 100 nM.

For `NC(=O)c1ncc(N2CCC[C@@H]3[C@H]2CCN3C(=O)C2CC2)nc1Nc1ccc(C2CCN(C3CCCC3)CC2)cc1` (racemic) [Example 288, 3-(4-(1-cyclopentylpiperidin-4-yl)phenylamino)-5-((3aR,7aR)-1-(cyclopropanecarbonyl)dihydro-1H-pyrrolo[3,2-b]pyridin-4(2H,5H,6H,7H,7aH)-yl)pyrazine-2-carboxamide], the IC50 is 10 to 100 nM.

With `NC(=O)c1ncc(N2CC[C@H]3CCN[C@H]3C2)nc1Nc1ccc(C2CCN(C3CCCC3)CC2)cc1` (racemic) [Example 291], the 50% inhibitory concentration (IC50) lay in the range of 100 to 1000 nM.

In the case of `CN(C)C(=O)N1CC[C@@H]2CCN(c3cnc(C(N)=O)c(Nc4ccc(C5CCN(C6CCCC6)CC5)cc4)n3)C[C@@H]21` (racemic) [Example 292, (3aS,7aR)-6-(5-carbamoyl-6-(4-(1-cyclopentylpiperidin-4-yl)phenylamino)pyrazin-2-yl)-N,N-dimethyloctahydro-1H-pyrrolo[2,3-c]pyridine-1-carboxamide], the IC50 was 10 to 100 nM.

Regarding `NC(=O)c1ncc(N2CC[C@H]3CCN(C(=O)C4CC4)[C@H]3C2)nc1Nc1ccc(C2CCN(C3CCCC3)CC2)cc1` (racemic) [Example 293, 3-(4-(1-cyclopentylpiperidin-4-yl)phenylamino)-5-((3aS,7aR)-1-(cyclopropanecarbonyl)tetrahydro-1H-pyrrolo[2,3-c]pyridin-6(2H,7H,7aH)-yl)pyrazine-2-carboxamide], the IC50 was 10 to 100 nM.

`CC1[C@H](NC(=O)C2CC2)CCCN1c1cnc(C(N)=O)c(Nc2ccc(C3CCN(C4CCCC4)CC3)cc2)n1` (stereo in doubt) [Example 349, (R)-3-(4-(1-cyclopentylpiperidin-4-yl)phenylamino)-5-(3-(cyclopropanecarboxamido)-2-methylpiperidin-1-yl)pyrazine-2-carboxamide]: the IC50 was less than 10 nM.

`CN(C(=O)c1ccc(C(C)(C)C)cc1)[C@@H]1CCCN(c2nnc(C(N)=O)c(Nc3ccc(C(=O)N4CCOCC4)cc3)n2)C1` [Example 3, (R)-3-(3-(4-tert-butyl-N-methylbenzamido)piperidin-1-yl)-5-(4-(morpholine-4-carbonyl)phenylamino)-1,2,4-triazine-6-carboxamide]: the half-maximal inhibitory concentration (IC50) was 10 to 100 nM.

In the case of `Cc1ccc(C(=O)N[C@@H]2CCCN(c3nnc(C(N)=O)c(Nc4ccc(C(=O)N5CCOCC5)cc4)n3)C2)cc1` [Example 4, (R)-3-(3-(4-methylbenzamido)piperidin-1-yl)-5-(4-(morpholine-4-carbonyl)phenylamino)-1,2,4-triazine-6-carboxamide], the IC50 is less than 10 nM.

As for `NC(=O)c1nnc(N2CCC[C@@H](NC(=O)c3ccccc3)C2)nc1Nc1ccc(C(=O)N2CCOCC2)cc1` [Example 5, (R)-3-(3-benzamidopiperidin-1-yl)-5-(4-(morpholine-4-carbonyl)phenylamino)-1,2,4-triazine-6-carboxamide], the IC50 was less than 10 nM.

`NC(=O)c1nnc(N2CCC[C@@H](NC(=O)c3ccc(C(F)(F)F)cc3)C2)nc1Nc1ccc(C(=O)N2CCOCC2)cc1` [Example 6, (R)-5-(4-(morpholine-4-carbonyl)phenylamino)-3-(3-(4-(trifluoromethyl)benzamido)piperidin-1-yl)-1,2,4-triazine-6-carboxamide]: the IC50 was less than 10 nM.

With `N#Cc1ccc(C(=O)N[C@@H]2CCCN(c3nnc(C(N)=O)c(Nc4ccc(C(=O)N5CCOCC5)cc4)n3)C2)cc1` [Example 7, (R)-3-(3-(4-cyanobenzamido)piperidin-1-yl)-5-(4-(morpholine-4-carbonyl)phenylamino)-1,2,4-triazine-6-carboxamide], the IC50 was in the range of 10 to 100 nM.

As for `NC(=O)c1nnc(N2CCC[C@@H](NC(=O)c3ccc(Cl)cc3)C2)nc1Nc1ccc(C(=O)N2CCOCC2)cc1` [Example 8, (R)-3-(3-(4-chlorobenzamido)piperidin-1-yl)-5-(4-(morpholine-4-carbonyl)phenylamino)-1,2,4-triazine-6-carboxamide], the IC50 was less than 10 nM.

`NC(=O)c1nnc(N2CCC[C@@H](NC(=O)c3ccc(F)cc3)C2)nc1Nc1ccc(C(=O)N2CCOCC2)cc1` [Example 9, (R)-3-(3-(4-fluorobenzamido)piperidin-1-yl)-5-(4-(morpholine-4-carbonyl)phenylamino)-1,2,4-triazine-6-carboxamide]: the IC50 was less than 10 nM.

Take `COc1ccc(C(=O)N[C@@H]2CCCN(c3nnc(C(N)=O)c(Nc4ccc(C(=O)N5CCOCC5)cc4)n3)C2)cc1` [Example 10, (R)-3-(3-(4-methoxybenzamido)piperidin-1-yl)-5-(4-(morpholine-4-carbonyl)phenylamino)-1,2,4-triazine-6-carboxamide]: the IC50 was less than 10 nM.

With `NC(=O)c1nnc(N2CCC[C@@H](NC(=O)c3ccc(C4CC4)cc3)C2)nc1Nc1ccc(C(=O)N2CCOCC2)cc1` [Example 11, (R)-3-(3-(4-cyclopropylbenzamido)piperidin-1-yl)-5-(4-(morpholine-4-carbonyl)phenylamino)-1,2,4-triazine-6-carboxamide], the IC50 is less than 10 nM.

As for `NC(=O)c1nnc(N2CCC[C@@H](NC(=O)c3ccccn3)C2)nc1Nc1ccc(C(=O)N2CCOCC2)cc1` [Example 12, (R)-5-(4-(morpholine-4-carbonyl)phenylamino)-3-(3-(picolinamido)piperidin-1-yl)-1,2,4-triazine-6-carboxamide], the IC50 is less than 10 nM.

On to `NC(=O)c1nnc(N2CCC[C@@H](NC(=O)c3cccnc3)C2)nc1Nc1ccc(C(=O)N2CCOCC2)cc1` [Example 13, (R)-5-(4-(morpholine-4-carbonyl)phenylamino)-3-(3-(nicotinamido)piperidin-1-yl)-1,2,4-triazine-6-carboxamide], for which the concentration for half-maximal inhibition (IC50) was in the range of 10 to 100 nM.

`NC(=O)c1nnc(N2CCC[C@@H](NC(=O)c3ccncc3)C2)nc1Nc1ccc(C(=O)N2CCOCC2)cc1` [Example 14, (R)-3-(3-(isonicotinamido)piperidin-1-yl)-5-(4-(morpholine-4-carbonyl)phenylamino)-1,2,4-triazine-6-carboxamide]: the IC50 was less than 10 nM.

In the case of `NC(=O)c1nnc(N2CCC[C@@H](NC(=O)c3ncccn3)C2)nc1Nc1ccc(C(=O)N2CCOCC2)cc1` [Example 15, (R)-5-(4-(morpholine-4-carbonyl)phenylamino)-3-(3-(pyrimidine-2-carboxamido)piperidin-1-yl)-1,2,4-triazine-6-carboxamide], the IC50 lay within 10 to 100 nM.

In the case of `NC(=O)c1nnc(N2CCC[C@@H](NC(=O)c3nccs3)C2)nc1Nc1ccc(C(=O)N2CCOCC2)cc1` [Example 16, (R)—N-(1-(6-carbamoyl-5-(4-(morpholine-4-carbonyl)phenylamino)-1,2,4-triazin-3-yl)piperidin-3-yl)thiazole-2-carboxamide], the IC50 was less than 10 nM.

The assay is the same for the next values; noted with them: read-out: Btk (IC50).
Take `CN(C)C(=O)N1CC[C@@H]2[C@H]1CCCN2c1cnc(C(N)=O)c(Nc2ccc(C3CCN(C4CCCC4)CC3)cc2)n1` (racemic) [Example 287, (3aR,7aR)-4-(5-carbamoyl-6-(4-(1-cyclopentylpiperidin-4-yl)phenylamino)pyrazin-2-yl)-N,N-dimethyloctahydro-1H-pyrrolo[3,2-b]pyridine-1-carboxamide]: the 50% inhibitory concentration (IC50) fell in the range of 10 to 100 nM.

As to `NC(=O)c1ncc(N2CCC[C@@H]3[C@H]2CCN3C(=O)C2CC2)nc1Nc1ccc(C2CCN(C3CCCC3)CC2)cc1` (racemic) [Example 288, 3-(4-(1-cyclopentylpiperidin-4-yl)phenylamino)-5-((3aR,7aR)-1-(cyclopropanecarbonyl)dihydro-1H-pyrrolo[3,2-b]pyridin-4(2H,5H,6H,7H,7aH)-yl)pyrazine-2-carboxamide], the IC50 fell in the range of 10 to 100 nM.

Turning to `NC(=O)c1ncc(N2CC[C@H]3CCN(C(=O)C4CC4)[C@H]3C2)nc1Nc1ccc(C2CCN(C3CCCC3)CC2)cc1` (racemic) [Example 293, 3-(4-(1-cyclopentylpiperidin-4-yl)phenylamino)-5-((3aS,7aR)-1-(cyclopropanecarbonyl)tetrahydro-1H-pyrrolo[2,3-c]pyridin-6(2H,7H,7aH)-yl)pyrazine-2-carboxamide], the IC50 was 10 to 100 nM.
